{"source": "paper PMC5693303", "about": "(Journal of medicinal chemistry, 2016)", "key": {"hMOR": {"target": "hMOR (Homo sapiens, UniProt P35372)", "sequence (P35372 whole entry)": "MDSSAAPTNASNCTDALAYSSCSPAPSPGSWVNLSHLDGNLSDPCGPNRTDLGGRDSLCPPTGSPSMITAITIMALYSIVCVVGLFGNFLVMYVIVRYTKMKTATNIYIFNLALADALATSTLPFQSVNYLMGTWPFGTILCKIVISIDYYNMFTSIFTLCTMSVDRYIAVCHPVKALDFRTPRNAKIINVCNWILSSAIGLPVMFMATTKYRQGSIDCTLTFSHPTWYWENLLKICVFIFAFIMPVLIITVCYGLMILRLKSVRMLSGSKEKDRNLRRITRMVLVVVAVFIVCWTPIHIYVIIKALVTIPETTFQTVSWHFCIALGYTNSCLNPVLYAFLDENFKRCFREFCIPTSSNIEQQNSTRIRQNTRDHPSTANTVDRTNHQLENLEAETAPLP", "assay": "Radioligand competition binding, [^3H]diprenorphine or [^3H]DAMGO", "details": "[^3H]diprenorphine, Kd = 2.81 nM; NC = no competition"}, "KOR [1]": {"target": "KOR (Homo sapiens, UniProt P41145)", "sequence (P41145 whole entry)": "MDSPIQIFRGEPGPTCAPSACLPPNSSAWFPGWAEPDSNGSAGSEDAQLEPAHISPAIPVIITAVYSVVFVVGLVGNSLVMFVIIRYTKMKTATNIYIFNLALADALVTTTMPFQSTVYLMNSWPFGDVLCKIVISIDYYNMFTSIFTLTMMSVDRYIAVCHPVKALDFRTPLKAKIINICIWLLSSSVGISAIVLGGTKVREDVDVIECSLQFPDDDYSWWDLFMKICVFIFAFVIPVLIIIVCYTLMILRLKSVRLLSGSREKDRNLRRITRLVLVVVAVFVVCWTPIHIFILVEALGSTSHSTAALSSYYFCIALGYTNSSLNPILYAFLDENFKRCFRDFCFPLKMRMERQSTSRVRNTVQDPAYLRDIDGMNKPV", "assay": "[^35S]GTPγS assay, agonist mode", "format": "biochemical", "details": "10 µM, KOR-CHO cells, compared to vehicle"}, "KOR [2]": {"target": "KOR (Mus musculus, UniProt P33534)", "sequence (P33534 whole entry)": "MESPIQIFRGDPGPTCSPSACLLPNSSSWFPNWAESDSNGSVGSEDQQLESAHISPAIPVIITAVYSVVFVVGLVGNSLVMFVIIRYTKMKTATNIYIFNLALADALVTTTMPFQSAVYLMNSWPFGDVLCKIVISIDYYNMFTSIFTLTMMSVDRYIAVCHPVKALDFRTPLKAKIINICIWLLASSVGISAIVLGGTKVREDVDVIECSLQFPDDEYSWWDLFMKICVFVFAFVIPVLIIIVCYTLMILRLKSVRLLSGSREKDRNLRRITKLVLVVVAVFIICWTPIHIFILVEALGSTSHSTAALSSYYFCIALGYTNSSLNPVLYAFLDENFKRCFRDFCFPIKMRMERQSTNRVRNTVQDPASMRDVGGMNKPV", "assay": "Tail flick test, pretreatment before KOR agonist 17", "format": "in vivo, mice", "details": "10 µg in 5 µL l.p., 15 min before 17 (10 µg)"}, "[3]": {"assay": "Tail flick test, 52 °C water, compound alone"}, "KOR [4]": {"target": "KOR (Cavia porcellus, UniProt P41144)", "sequence (P41144 whole entry)": "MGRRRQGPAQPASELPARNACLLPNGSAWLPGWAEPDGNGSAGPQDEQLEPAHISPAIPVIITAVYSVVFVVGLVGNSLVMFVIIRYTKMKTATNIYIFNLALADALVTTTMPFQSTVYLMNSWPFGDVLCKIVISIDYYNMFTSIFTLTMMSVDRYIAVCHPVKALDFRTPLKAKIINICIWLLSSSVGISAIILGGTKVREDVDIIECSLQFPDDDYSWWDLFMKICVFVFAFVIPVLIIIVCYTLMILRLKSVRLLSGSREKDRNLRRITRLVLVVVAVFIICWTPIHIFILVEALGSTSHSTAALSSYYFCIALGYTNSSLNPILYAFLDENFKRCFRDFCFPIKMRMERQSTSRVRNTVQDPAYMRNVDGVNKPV", "assay": "GPI/LMMP assay, inhibition of electrically stimulated muscle contraction", "format": "cell-based, guinea pig"}}, "note": "Marks after values point to notes of the source that are not given here.", "data": [{"substance": "Ac-YGPFLRIRPK-NH2 [compound 8]", "values": [{"measurement": "Ki", "setting": "hMOR", "result": "no competition"}]}, {"substance": "H-YGGFLRIRPK-NH2 [compound 3]", "values": [{"measurement": "KOR activation", "setting": "KOR [1]", "result": "significant activation"}]}, {"substance": "H-YGPFLRIRPK-NH2 [compound 7]", "values": [{"measurement": "blockade of antinociceptive effect of 17", "setting": "KOR [2]", "result": "significantly blocked"}, {"measurement": "elevation of TWL, % of max response", "setting": "[3]; 10 µg in 5 µL i.t., 30 min", "result": "39.45 ± 6.95", "unit": "%"}, {"measurement": "tail withdrawal latency (antinociceptive effect)", "setting": "[3]; 0.1, 1.0 and 10 µg in 5 µL i.t., compared to vehicle", "result": "significantly elevated tail withdrawal latency"}]}, {"substance": "Ac-YGGFLRIRPK-NH2 [compound 5]", "values": [{"measurement": "percent of agonist activity", "setting": "KOR [4]; 1 µM test compound, compared to average signal 3 min prior to drug", "result": 0, "unit": "% ^b"}, {"measurement": "agonist response in GPI/LMMP", "setting": "KOR [4]; in words", "result": "did not show significant responses"}, {"measurement": "KOR activation", "setting": "KOR [1]", "result": "did not show KOR activation"}]}]}
